Assay results reported in PubChem BioAssay (NCI).
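A five-concentration, 48-hour dose response in 96-well plates underlies each endpoint, interpolated linearly between surrounding concentrations. Here, GI50 denotes the concentration required for 50% inhibition of growth. TGI marks complete inhibition of growth.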

Legend:
Experiment in all cases: NCI tumour cell line growth inhibition, 48 h
HOP-62 NSCLC = system: HOP-62 NSCLC
MDA-N = system: MDA-N
MOLT-4 leukemia = system: MOLT-4 leukemia
RPMI-8226 leukemia = system: RPMI-8226 leukemia
SK-MEL-2 melanoma = system: SK-MEL-2 melanoma
OVCAR-3 ovarian = system: OVCAR-3 ovarian
RXF 393 renal = system: RXF 393 renal

Q: How did the TGI (HOP-62 NSCLC) turn out when `CC(=O)Nc1ccc2[nH]c(-c3cccc(F)c3)cc(=O)c2c1` was run?
A: > 48.4 µM

Q: What about the TGI (MDA-N) of the same compound?
A: > 25.4 µM

Q: What about the TGI (MOLT-4 leukemia) of the same compound?
A: > 100 µM

Q: What about the TGI (RPMI-8226 leukemia) of the same compound?
A: > 59.8 µM

Q: How did the TGI (HOP-62 NSCLC) turn out when `COc1cc2c(cc1OC)CC(N=[N+]=[N-])c1cc(OC)c(OC)cc1/C=C\2` (stereo not drawn) was run?
A: > 100 µM

Q: And the TGI (MDA-N)?
A: 25.2 µM

Q: What about the TGI (MOLT-4 leukemia) of the same compound?
A: > 100 µM

Q: And the TGI (OVCAR-3 ovarian)?
A: > 100 µM

Q: What about the TGI (RPMI-8226 leukemia) of the same compound?
A: > 100 µM

Q: And the TGI (SK-MEL-2 melanoma)?
A: > 100 µM

Q: Which TGI (HOP-62 NSCLC) does the source give for `COc1cccc(-c2cc(=O)c3c(C)ccnc3[nH]2)c1` here?
A: > 100 µM

Q: What about the TGI (MOLT-4 leukemia) of the same compound?
A: > 100 µM

Q: What about the TGI (RPMI-8226 leukemia) of the same compound?
A: 11.8 µM

Q: And the TGI (RXF 393 renal)?
A: > 100 µM

Q: And the TGI (SK-MEL-2 melanoma)?
A: > 100 µM

Q: How did the TGI (HOP-62 NSCLC) turn out when `Cc1cc2c(c(C=NCc3ccccc3)c1)OC1(C=C2)Oc2ccccc2C(=O)N1C` (stereo not drawn) was run?
A: > 100 µM

Q: What about the TGI (MOLT-4 leukemia) of the same compound?
A: 36.5 µM

Q: And the TGI (OVCAR-3 ovarian)?
A: > 100 µM

Q: And the TGI (RPMI-8226 leukemia)?
A: 50.4 µM

Q: And the TGI (RXF 393 renal)?
A: 55.9 µM

Q: And the TGI (SK-MEL-2 melanoma)?
A: 62.6 µM

Q: How did the TGI (HOP-62 NSCLC) turn out when `CC(C)=CCC/C(C)=C/CC/C(C)=C/CC/C(C)=C/CC/C(C)=C\CC/C(C)=C/CC/C(C)=C/CC/C(C)=C/Cc1cc(O)ccc1O` was run?
A: 29.5 µM

Q: What about the TGI (MOLT-4 leukemia) of the same compound?
A: 8.34 µM

Q: And the TGI (OVCAR-3 ovarian)?
A: 1.94 µM

Q: And the TGI (SK-MEL-2 melanoma)?
A: 3.14 µM

Q: How did the TGI (HOP-62 NSCLC) turn out when `COC(=O)c1csc(-c2nc(CCNC(=O)OC(C)(C)C)sc2Br)n1` was run?
A: > 100 µM

Q: What about the TGI (MDA-N) of the same compound?
A: > 100 µM

Q: And the TGI (MOLT-4 leukemia)?
A: > 100 µM

Q: And the TGI (OVCAR-3 ovarian)?
A: > 100 µM

Q: What about the TGI (RPMI-8226 leukemia) of the same compound?
A: > 100 µM

Q: And the TGI (RXF 393 renal)?
A: > 100 µM

Q: How did the TGI (HOP-62 NSCLC) turn out when `S=C1N=C(Cl)C2(NN1)c1ccccc1-c1ccccc12` was run?
A: > 10 µM

Q: What about the TGI (MDA-N) of the same compound?
A: > 10 µM

Q: And the TGI (MOLT-4 leukemia)?
A: > 10 µM

Q: What about the TGI (RPMI-8226 leukemia) of the same compound?
A: > 10 µM

Q: Which TGI (HOP-62 NSCLC) does the source give for `COCc1cc2c(cc1/C=C/[N+](=O)[O-])OCO2` here?
A: 35.8 µM

Q: What about the TGI (MDA-N) of the same compound?
A: 32.6 µM

Q: And the TGI (MOLT-4 leukemia)?
A: > 100 µM

Q: What about the TGI (OVCAR-3 ovarian) of the same compound?
A: 33.7 µM

Q: What about the TGI (RPMI-8226 leukemia) of the same compound?
A: > 100 µM

Q: And the TGI (RXF 393 renal)?
A: 32.3 µM

Q: Which TGI (HOP-62 NSCLC) does the source give for `O=C1CCCCc2cccc(O)c21` here?
A: > 100 µM

Q: What about the TGI (MOLT-4 leukemia) of the same compound?
A: > 100 µM

Q: And the TGI (OVCAR-3 ovarian)?
A: > 100 µM

Q: What about the TGI (RPMI-8226 leukemia) of the same compound?
A: > 100 µM

Q: And the TGI (RXF 393 renal)?
A: > 100 µM

Q: What about the TGI (SK-MEL-2 melanoma) of the same compound?
A: > 100 µM

Q: Which results are given for `C[C@H](O)C1CC(Cn2nnc3c(N)ncnc32)C1(C)C` (stereo partly drawn)?
A: TGI (HOP-62 NSCLC): > 100 µM; TGI (MDA-N): > 100 µM; TGI (OVCAR-3 ovarian): > 100 µM; TGI (RXF 393 renal): > 100 µM; TGI (SK-MEL-2 melanoma): > 100 µM

Q: For `N#CC1(C#N)NC(c2ccsc2)C(C#N)(C#N)NC1c1ccsc1` (stereo not drawn), which TGI (HOP-62 NSCLC) is on record?
A: > 100 µM

Q: What about the TGI (MDA-N) of the same compound?
A: > 100 µM

Q: And the TGI (MOLT-4 leukemia)?
A: > 100 µM

Q: What about the TGI (OVCAR-3 ovarian) of the same compound?
A: > 100 µM

Q: And the TGI (RPMI-8226 leukemia)?
A: > 100 µM

Q: And the TGI (SK-MEL-2 melanoma)?
A: > 100 µM

Q: Which TGI (HOP-62 NSCLC) does the source give for `O=c1[nH]nc(Cc2ccccc2)n1Nc1ccccc1` here?
A: > 100 µM

Q: And the TGI (MDA-N)?
A: > 100 µM

Q: And the TGI (MOLT-4 leukemia)?
A: > 100 µM

Q: What about the TGI (OVCAR-3 ovarian) of the same compound?
A: > 100 µM

Q: What about the TGI (RPMI-8226 leukemia) of the same compound?
A: > 100 µM

Q: What about the TGI (SK-MEL-2 melanoma) of the same compound?
A: > 100 µM

Q: Which TGI (HOP-62 NSCLC) does the source give for `COc1ccc(CC2NC(=O)/C=C/CC(C(C)C3OC3c3ccccc3)OC(=O)C(CC(C)C)OC(=O)C(C)CNC2=O)cc1Cl` (stereo not drawn) here?
A: > 0.1 µM

Q: And the TGI (OVCAR-3 ovarian)?
A: 0.000584 µM

Q: And the TGI (RPMI-8226 leukemia)?
A: > 0.1 µM

Q: What about the TGI (SK-MEL-2 melanoma) of the same compound?
A: > 0.1 µM

Q: What does the source list for `O[C@@H]1C[C@@H]2N[C@@](O)(C[C@@H]2O)[C@H]1O`?
A: TGI (HOP-62 NSCLC): > 100 µM; TGI (MDA-N): > 100 µM; TGI (MOLT-4 leukemia): > 100 µM; TGI (OVCAR-3 ovarian): > 100 µM; TGI (RPMI-8226 leukemia): > 100 µM; TGI (RXF 393 renal): > 100 µM

Q: How did the TGI (HOP-62 NSCLC) turn out when `CC(=O)OCC1=C(C)C(OC(=O)C(OC(C)=O)[C@@H](NC(=O)c2ccccc2)c2ccccc2)CCC1(C)C` (stereo partly drawn) was run?
A: > 100 µM

Q: And the TGI (MDA-N)?
A: > 100 µM

Q: And the TGI (MOLT-4 leukemia)?
A: > 100 µM

Q: And the TGI (OVCAR-3 ovarian)?
A: > 100 µM

Q: What about the TGI (RPMI-8226 leukemia) of the same compound?
A: > 100 µM

Q: What about the TGI (RXF 393 renal) of the same compound?
A: > 100 µM

Q: What does the source list for `CCN(CC)C(=S)SS(=O)(=O)c1ccc([N+](=O)[O-])cc1`?
A: GI50 (HOP-62 NSCLC): 32.1 µM; TGI (HOP-62 NSCLC): > 100 µM; GI50 (MDA-N): 30.2 µM; TGI (MDA-N): > 100 µM; GI50 (OVCAR-3 ovarian): 35.4 µM; TGI (OVCAR-3 ovarian): > 100 µM; TGI (RPMI-8226 leukemia): 48.8 µM; GI50 (RXF 393 renal): 16 µM; TGI (RXF 393 renal): 32.1 µM; TGI (SK-MEL-2 melanoma): > 100 µM

Q: For `Cc1c(NC(=S)Nc2ccc(Cl)cc2)c(=O)n(-c2ccccc2)n1C`, which TGI (HOP-62 NSCLC) is on record?
A: > 100 µM

Q: And the TGI (MDA-N)?
A: > 100 µM

Q: What about the TGI (MOLT-4 leukemia) of the same compound?
A: > 100 µM

Q: What about the TGI (OVCAR-3 ovarian) of the same compound?
A: > 100 µM

Q: And the TGI (RPMI-8226 leukemia)?
A: > 100 µM

Q: What about the TGI (RXF 393 renal) of the same compound?
A: > 100 µM

Q: `Brc1ccc2[nH]cc(-c3nc(-c4c[nH]c5ccccc45)cs3)c2c1` was tested. Which TGI (HOP-62 NSCLC) did it give?
A: 21.7 µM

Q: And the TGI (MDA-N)?
A: 9.35 µM

Q: And the TGI (OVCAR-3 ovarian)?
A: 15.5 µM

Q: What about the TGI (RPMI-8226 leukemia) of the same compound?
A: > 20.7 µM

Q: And the TGI (RXF 393 renal)?
A: 16 µM

Q: And the TGI (SK-MEL-2 melanoma)?
A: 8.43 µM

Q: Which TGI (HOP-62 NSCLC) does the source give for `C[Si](C)(OCCS(=O)(=O)O)C1S(=O)(=O)OCCOS1(=O)=O` here?
A: > 100 µM

Q: And the TGI (MDA-N)?
A: > 100 µM

Q: And the TGI (MOLT-4 leukemia)?
A: > 100 µM

Q: And the TGI (OVCAR-3 ovarian)?
A: > 100 µM

Q: What about the TGI (RPMI-8226 leukemia) of the same compound?
A: > 100 µM

Q: What about the TGI (RXF 393 renal) of the same compound?
A: > 100 µM

Q: For `CCOc1cc(NC(C)=O)ccc1C(=O)NN1C(=O)/C(=C/c2cc(OC)c(OC)c(OC)c2)N=C1c1ccccc1`, which TGI (MDA-N) is on record?
A: > 100 µM

Q: And the TGI (MOLT-4 leukemia)?
A: > 100 µM

Q: And the TGI (OVCAR-3 ovarian)?
A: > 100 µM

Q: `N#Cc1ccc(OCc2nc3cc(C(F)(F)F)ccc3nc2-c2ccccc2)cc1` was tested. Which TGI (HOP-62 NSCLC) did it give?
A: > 100 µM

Q: What about the TGI (MDA-N) of the same compound?
A: > 100 µM

Q: What about the TGI (MOLT-4 leukemia) of the same compound?
A: > 100 µM

Q: What about the TGI (OVCAR-3 ovarian) of the same compound?
A: > 100 µM

Q: What about the TGI (RPMI-8226 leukemia) of the same compound?
A: > 100 µM

Q: And the TGI (SK-MEL-2 melanoma)?
A: > 100 µM

Q: How did the TGI (HOP-62 NSCLC) turn out when `CN1CN(c2ccccc2)C2(CCN(CCc3csc4ccccc34)CC2)C1=O` was run?
A: 26.4 µM

Q: What about the TGI (MOLT-4 leukemia) of the same compound?
A: 41.9 µM

Q: What about the TGI (OVCAR-3 ovarian) of the same compound?
A: 26.6 µM

Q: And the TGI (RPMI-8226 leukemia)?
A: 37.4 µM

Q: And the TGI (RXF 393 renal)?
A: 25.3 µM

Q: Which TGI (HOP-62 NSCLC) does the source give for `CCOC(=O)CCC(NC(=O)c1ccc(N2CCN(c3c(C)nc(N)nc3N)CC2)cc1)C(=O)OCC` (stereo not drawn) here?
A: > 100 µM

Q: What about the TGI (MDA-N) of the same compound?
A: > 54.7 µM

Q: And the TGI (MOLT-4 leukemia)?
A: > 100 µM

Q: What about the TGI (OVCAR-3 ovarian) of the same compound?
A: > 100 µM

Q: And the TGI (RPMI-8226 leukemia)?
A: 6.94 µM

Q: And the TGI (SK-MEL-2 melanoma)?
A: > 100 µM

Q: Which results are given for `COC(=O)CCC12CCC(O1)c1ccccc12` (stereo not drawn)?
A: TGI (HOP-62 NSCLC): > 100 µM; TGI (MDA-N): > 100 µM; TGI (MOLT-4 leukemia): > 100 µM; TGI (RPMI-8226 leukemia): > 100 µM; TGI (RXF 393 renal): > 100 µM

Q: With `CCC1C(c2cc(OC)c(OC)c(OC)c2)c2cc3c(cc2OC1N1CCOCC1)OCO3` (stereo not drawn) as the compound, how does the TGI (HOP-62 NSCLC) read?
A: 20.6 µM

Q: What about the TGI (MDA-N) of the same compound?
A: 3.83 µM

Q: And the TGI (OVCAR-3 ovarian)?
A: 18.7 µM

Q: What about the TGI (SK-MEL-2 melanoma) of the same compound?
A: > 100 µM
